From patent US9682963B2, “Pyridine derivatives as soft rock inhibitors” (Amakem NV, priority 2013, dated 2017)

Key:
[1] = Stability assay in human plasma; format: in vitro ADME; conditions: 1 μM in human plasma, LC-MS/MS; read-out: t½ human plasma
Description: Compounds are incubated at a concentration of 1 μM in human (or animal) plasma. Samples are taken at fixed time points and the remnant of compound is determined by LC-MS/MS after protein precipitation. Half life in table C.2.1 is expressed in minutes.

[2] = test system: MLC-T18/S19 phosphorylation in A7r5 cells (endogenous ROCK); experiment: MLC phosphorylation assay (ELISA) in A7r5 cells; format: cell-based; conditions: Rattus norvegicus, serum-free medium, phospho-MLC-T18/S19 ELISA, read-out: EC50 MLC-PP
Description: Rat smooth muscle cell line A7r5 is used. The endogenous expression of ROCK results in a constitutive phosphorylation of the regulatory myosin light chain at T18/S19. A7r5 cells were plated in DMEM supplemented with 10% FCS in multiwall cell culture plates. After serum starvation overnight, cells were incubated with compounds in serum-free medium.
Quantification of MLC-T18/S19 phosphorylation is assessed in 96 well-plates via ELISA using a phospho-MLC-T18/S19 specific antibody and a secondary detection antibody. Raw data were converted into percent substrate phosphorylation relative to high controls, which were set to 100%. EC50 values were determined using GraphPad Prism 5.01 software using a nonlinear regression curve fit with variable hill slope.

[3] = Stability towards drug metabolizing enzymes in lung S9; format: in vitro ADME; conditions: human, lung S9 fraction, lung S9 with NADPH, UDPGA, PAPS and GSH, read-out: t½ human lung S9
Description: A 1 μM solution of the ROCK inhibitors is incubated with a reaction mixture containing lung S9 (EDTA-free) as well as the cofactors NADPH, UDPGA, PAPS and GSH. Samples are collected at 0, 15, 30 and 60 minutes post incubation. Negative control samples incubated with ROCK inhibitors and S9 fraction in the absence of cofactors are run in parallel. By using LC-MS/MS analysis, the percent of ROCK compounds remaining at each time point, the metabolic half-life of the ROCK compounds (expressed in minutes in table C.2.2) and the metabolic half-life of the control compounds are determined.

male BALB/c mice = experiment: Acute LPS lung challenge model, BALF cell counts; format: in vivo, mouse; conditions: 0.1 and 0.01 mg/kg intratracheally 0.5 hr before LPS; BALF at 24 hrs; versus dexamethasone 1 mg/kg oral
Description: FIG. 1: Anti-inflammatory activity of Cpd4 in an acute LPS lung challenge model (mouse). Data is provided as bronchoalveolar lavage fluid (BALF) cell count (10^3/μl)±SEM. WBC: White Blood Cell. NEUT: Neutrophil. Dex: Dexamethasone control.
Selected compounds of the invention were evaluated in vivo in an acute LPS lung challenge model. Groups of 6 male BALB/c mice were used for each tested dose and for positive and negative controls. Under anesthesia with gas anesthetics (isoflurane), test substances and vehicle (0.9% NaCl, 1 mL/kg) were administered intratracheally (IT) to test animals 0.5 hr prior to challenge with ˜80 μg/kg of E. coli lipopolysaccharide (LPS, Sigma, serotype 055:B5, in sterile saline, 2 μg in 20 μL per mouse intratracheally). Dexamethasone, the positive control, at 1 mg/kg in 2% Tween 80 was given orally to test animals one hour before LPS challenge. Mice were anaesthetized with isoflurane at 24 hrs after LPS challenge, 0.5 mL of phosphate buffered saline (PBS, pH 7.4) was instilled into the lung twice through a tracheal cannula, after which about a total of 0.6˜0.8 mL of bronchoalveolar lavage fluid (BALF) was obtained. Total cell and neutrophils counts in BALF were then determined and one-way ANOVA followed by Dunnett's test was used to analyze difference between the vehicle control and treated groups. Significant difference is considered at P<0.05.

[4] = Stability in human intestinal tissue homogenate; format: in vitro ADME; conditions: 40 mg/ml human intestinal homogenate, read-out: t½ (min) human
Description: A 1 μM solution of the ROCK inhibitors is incubated with human intestinal tissue homogenate (final concentration: 40 mg/ml) Samples are collected at 0, 20 and 60 minutes post incubation. By using LC-MS/MS analysis, the percent of ROCK compounds remaining at each time point, the metabolic half-life of the ROCK compounds (expressed in minutes in table C.2.3) and the metabolic half-life of control compounds are determined.

[5] = Stability in mouse intestinal homogenate; format: in vitro ADME; conditions: 40 mg/ml mouse intestinal homogenate, read-out: t½ (min) mouse

Structure (SMILES)	half-life at 1 μM [1] [min]	EC50 [2] [nM]	half-life at 1 μM [3] [min]	anti-inflammatory activity (BALF WBC and neutrophil count) (male BALB/c mice)	half-life at 1 μM [4] [min]	half-life at 1 μM [5] [min]
NCc1ccc(C(=O)Nc2ccncc2F)cc1-c1cccc(C(=O)Nc2cccc(SC3CCOC3=O)c2)c1 (stereo not shown) [Cpd 8, 6-(aminomethyl)-N^3-(3-fluoropyridin-4-yl)-N^3′-(3-((2-oxotetrahydrofuran-3-yl)thio)phenyl)-[1,1′-biphenyl]-3,3′-dicarboxamide]	< 20	100 to 1000	–	–	–	–
NCc1ccc(C(=O)Nc2ccncc2F)cc1-c1cccc(C(=O)Nc2ccc(OC3CCOC3=O)cc2)c1 (stereo not shown) [Cpd 3, 6-(aminomethyl)-N^3-(3-fluoropyridin-4-yl)-N^3′-(4-((2-oxotetrahydrofuran-3-yl)oxy)phenyl)-[1,1′-biphenyl]-3,3′-dicarboxamide]	< 20	100 to 1000	–	–	–	–
CC1CC(Sc2ccc(NC(=O)c3cccc(-c4cc(C(=O)Nc5ccncc5F)ccc4CN)c3)cc2)C(=O)O1 (stereo not shown) [Cpd 9, 6-(aminomethyl)-N^3-(3-fluoropyridin-4-yl)-N^3′-(4-((5-methyl-2-oxotetrahydrofuran-3-yl)thio)phenyl)-[1,1′-biphenyl]-3,3′-dicarboxamide]	< 20	< 100	–	–	–	–
NCc1ccc(C(=O)Nc2ccncc2F)cc1-c1cccc(NC(=O)c2ccc(NC3CCOC3=O)cc2)c1 (stereo not shown) [Cpd 13, 6-(aminomethyl)-N-(3-fluoropyridin-4-yl)-3′-(4-((2-oxotetrahydrofuran-3-yl)amino)benzamido)-[1,1′-biphenyl]-3-carboxamide]	< 20	< 100	> 60	–	–	–
NCc1ccc(C(=O)Nc2ccncc2F)cc1-c1cccc(NC(=O)c2ccc(SC3CCOC3=O)cc2)c1 (stereo not shown) [Cpd 4, 6-(aminomethyl)-N-(3-fluoropyridin-4-yl)-3′-(4-((2-oxotetrahydrofuran-3-yl)thio)benzamido)-[1,1′-biphenyl]-3-carboxamide]	< 20	< 100	> 60	equivalent to the dexamethasone control	–	–
NCc1ccc(C(=O)Nc2ccncc2F)cc1-c1cccc(C(=O)Nc2ccc(SC3COC(=O)C3)cc2)c1 (stereo not shown) [Cpd 11, 6-(aminomethyl)-N^3-(3-fluoropyridin-4-yl)-N^3′-(4-((2-oxotetrahydrofuran-4-yl)thio)phenyl)-[1,1′-biphenyl]-3,3′-dicarboxamide]	< 20	< 100	–	–	–	–
CN(c1ccc(NC(=O)c2cccc(-c3cc(C(=O)Nc4ccncc4F)ccc3CN)c2)cc1)C1CCOC1=O (stereo not shown) [Cpd 7, 6-(aminomethyl)-N^3-(3-fluoropyridin-4-yl)-N^3′-(4-(methyl(2-oxotetrahydrofuran-3-yl)amino)phenyl)-[1,1′-biphenyl]-3,3′-dicarboxamide]	< 20	< 100	> 60	–	> 120	> 120
NCc1ccc(C(=O)Nc2ccncc2F)cc1-c1cccc(C(=O)Nc2ccc(NC3CCOC3=O)cc2)c1 (stereo not shown) [Cpd 5, 6-(aminomethyl)-N^3-(3-fluoropyridin-4-yl)-N^3′-(4-((2-oxotetrahydrofuran-3-yl)amino)phenyl)-[1,1′-biphenyl]-3,3′-dicarboxamide]	< 20	< 100	> 60	–	–	> 120
NCc1ccc(C(=O)Nc2ccncc2F)cc1-c1cccc(C(=O)Nc2ccc(CNC3CCOC3=O)cc2)c1 (stereo not shown) [Cpd 1, 6-(aminomethyl)-N^3-(3-fluoropyridin-4-yl)-N^3′-(4-(((2-oxotetrahydrofuran-3-yl)amino)methyl)phenyl)-[1,1′-biphenyl]-3,3′-dicarboxamide]	< 20	100 to 1000	> 60	–	–	–
NCc1ccc(C(=O)Nc2ccncc2F)cc1-c1cccc(C(=O)Nc2ccc(SC3CCOC3=O)cc2F)c1 (stereo not shown) [Cpd 12, 6-(aminomethyl)-N^3-(3-fluoropyridin-4-yl)-N^3′-(2-fluoro-4-((2-oxotetrahydrofuran-3-yl)thio)phenyl)-[1,1'-biphenyl]-3,3′-dicarboxamide]	< 20	< 100	–	–	–	–
NCc1ccc(C(=O)Nc2ccncc2F)cc1-c1cccc(C(=O)Nc2ccc(SCC3CCOC3=O)cc2)c1 (stereo not shown) [Cpd 2, 6-(aminomethyl)-N^3-(3-fluoropyridin-4-yl)-N^3′-(4-(((2-oxotetrahydrofuran-3-yl)methyl)thio)phenyl)-[1,1′-biphenyl]-3,3′-dicarboxamide]	< 20	< 100	> 60	–	> 120	> 120
NCc1ccc(C(=O)Nc2ccncc2F)cc1-c1cccc(C(=O)Nc2ccc(SC3CCOC3=O)cc2)c1 (stereo not shown) [Cpd 6, 6-(aminomethyl)-N^3-(3-fluoropyridin-4-yl)-N^3′-(4-((2-oxotetrahydrofuran-3-yl)thio)phenyl)-[1,1′-biphenyl]-3,3′-dicarboxamide]	< 20	< 100	> 60	–	–	–
